Assay results reported in patent publication US20210085582A1, “SYNERGISTIC ANTIOXIDANT ACID COMPOUND ASSOCIATIONS” (L'OREAL, priority 2019, published 2021).

Test: oxygen radical absorbance capacity (ORAC) assay, antioxidant (AOX) strength testing
Settings: 0.5% ferulic acid, 0.5% salicylic acid
Excerpt: The peroxyl radical, generated from the thermal decomposition of 2,2'-azobis-2-methyl-propanimidamide dihydrochloride (AAPH), will quench a fluorescent probe by a hydrogen atom transfer reaction. In the presence of an antioxidant, however, the molecule will initially block or prevent the quenching of the probe, causing a delay in the fluorescence decay profile. The area under the fluorescence decay curves for samples with and without the presence of an antioxidant are compared to that of a standard reference material and the peroxyl radical antioxidant capacity is determined. References disclosing ORAC assays include Cao G, Alessio H, Cutler R (1993). “Oxygen-radical absorbance capacity assay for antioxidants”. Free Radic Biol Med 14 (3): 303-11; Ou B, Hampsch-Woodill M, Prior R (2001). “Development and validation of an improved oxygen radical absorbance capacity assay using fluorescein as the fluorescent probe”. J Agric Food Chem 49 (10): 4619-26; Huang D, Ou B, Prior R (2005). “The chemistry behind antioxidant capacity assays”. J. Agric. Food Chem. 53 (6): 1841-56; and Garrett A R, Murray B K, Robison […] (2010). “Measuring antioxidant capacity using the ORAC and TOSC assays”. Advanced Protocols in Oxidative Stress II: Methods in Molecular Biology (series), Donald J Armstrong (ed) 594: 251-62.

O=C1CC[C@@H](C(=O)[O-])N1.O=C1CC[C@@H](C(=O)[O-])N1.[Zn+2] [Zinc PCA]
contribution to antioxidant potential of the association (Zinc PCA 0.5% added to compositions with 15% ascorbic acid): not found to be a contributing factor

O=C(O)c1cc(O)c(O)c(O)c1 [gallic acid, 3,4,5-trihydroxybenzoic acid]
effect on overall antioxidant capacity of the association (1% gallic acid added to 15% ascorbic acid): modest | effect on overall antioxidant capacity of the association (5% gallic acid added to 15% ascorbic acid): significant
